# In ChEMBL document CHEMBL3507680, “University of Dundee, Gates Library screen for HepG2 cell viability”:
# Assay: Human HepG2 cell viability assay in 384 well format
# Assay type: toxicity, cell-based
# Parameters: dose 125 nL, time 70.5 hour; concentration not given beside the values
# Details: HepG2 cells, read-out: Inhibition
smiles,measurement,value
CCNc1ncc(C(=O)N[C@H]2CC[C@H](n3cnnc3)CC2)cn1,cytotoxicity at 70.5 h,-1.33%
Cc1sc2nc(CCN)nc(N3CCS(=O)(=O)CC3)c2c1C,cytotoxicity at 70.5 h,-0.146%
CCCN1CCN(C(=O)Nc2ccccc2Cl)[C@H]2CS(=O)(=O)C[C@H]21,cytotoxicity at 70.5 h,-4.21%
CCCc1cc(C(=O)N[C@H](C)[C@@H](O)c2ccc(O)cc2)n(C)n1,cytotoxicity at 70.5 h,-11.6%
COc1ccc(CCNC(=O)CN2CCOCS2(=O)=O)cc1,cytotoxicity at 70.5 h,-8.13%
CC(=O)N1CCC(NC(C)c2cnn(-c3ccc(F)cc3F)c2C)CC1 (configuration not stated),cytotoxicity at 70.5 h,-5.65%
COCCN1CC(Nc2nc(C(C)C)nc3c2cnn3C)CC1=O (configuration not stated),cytotoxicity at 70.5 h,-0.509%
Cc1nn(C)c(C)c1CN(C)C(C(=O)O)c1ccc(F)cc1F (configuration not stated),cytotoxicity at 70.5 h,-1.85%
CCC1CCC(NCCN2CCOCC2)CC1 (configuration not stated),cytotoxicity at 70.5 h,-6.57%
CC1CCCN(Cc2cccc(C(=O)Nc3nccs3)c2)C1 (configuration not stated),cytotoxicity at 70.5 h,-11.3%
Cc1cccnc1CNCC1(O)CCCN(CC2CCC2)C1=O (configuration not stated),cytotoxicity at 70.5 h,2.29%
CN(CCNC(=O)c1cnc(-c2ccccc2)nc1)S(C)(=O)=O,cytotoxicity at 70.5 h,5.47%
Cn1ncnc1-c1ccnc(NCc2ccccn2)n1,cytotoxicity at 70.5 h,9.26%
O=C(CCN1CCCO1)N1CCCC(CO)(CCCc2ccccc2)C1 (configuration not stated),cytotoxicity at 70.5 h,-8.66%
O=C1OC2(CCN(C(=O)C3NCCc4[nH]cnc43)CC2)c2ccccc21 (configuration not stated),cytotoxicity at 70.5 h,-9.73%
Cc1cc(NC(C)c2nncn2C2CCCC2)n2nc(C)c(C)c2n1 (configuration not stated),cytotoxicity at 70.5 h,-12.4%
CC[C@H]1COCCN1C(=O)c1ccc(OC)c(N2CCOCC2)c1,cytotoxicity at 70.5 h,-10.3%
OCCN(Cc1ccccc1)Cc1ccsc1,cytotoxicity at 70.5 h,-9.98%
O=c1c(CN2CCOCC2)coc2ccc(Cl)cc12,cytotoxicity at 70.5 h,-8.39%
Cc1nc(CCN)cc(N2CCOc3ccc(Cl)cc3C2)n1,cytotoxicity at 70.5 h,-5.61%
CN1CCN(Cc2ccc(Cl)cc2)CC1C(=O)O (configuration not stated),cytotoxicity at 70.5 h,-6.51%
Cn1ncc2c(N3CCN(CCC(N)=O)CC3)nc(C3CCCC3)nc21,cytotoxicity at 70.5 h,-9.84%
O=c1c(CN2CCCCC2)coc2ccc(Cl)cc12,cytotoxicity at 70.5 h,-7.22%
COC(=O)c1ccc(CNC(=O)Cc2csc(C(C)=O)c2)cc1,cytotoxicity at 70.5 h,4.17%
CCCc1nccn1-c1cccc(C(C)O)c1 (configuration not stated),cytotoxicity at 70.5 h,-2.3%
CNc1ncc(CN(C)c2nc(C)c3ccc(S(C)(=O)=O)cc3n2)cn1,cytotoxicity at 70.5 h,-6.87%
CCc1nc(C)c(CN2CCCC(c3nn(C)c(=O)n3CC)C2)[nH]1 (configuration not stated),cytotoxicity at 70.5 h,-6.96%
CCCn1ncc(C(=O)N2CCN(C3Cc4ccccc4C3)CC2)c1C,cytotoxicity at 70.5 h,-0.105%
CN(Cc1nc(-c2cccnc2)no1)C(=O)c1c2c(nn1C)CCCC2,cytotoxicity at 70.5 h,-1.52%
Cc1nccn1CCC(=O)N1CCCN(c2ccccc2)CC1,cytotoxicity at 70.5 h,-6.92%
COc1cc(C)c(C2CC(=O)NCc3nc4sccn4c32)cc1C (configuration not stated),cytotoxicity at 70.5 h,-18%
Cc1ocnc1C(=O)N1CCN(Cc2ccccc2)[C@@H]2CS(=O)(=O)C[C@@H]21,cytotoxicity at 70.5 h,-9.03%
O=C(c1scc2c1OCCO2)N1CCOC(CCc2ccccc2)C1 (configuration not stated),cytotoxicity at 70.5 h,1.27%
CN(C)c1nc(NCCc2ccnn2C)ncc1F,cytotoxicity at 70.5 h,23.5%
Cc1cc(C(=O)N2C[C@@H](C(=O)O)[C@H](C(C)C)C2)cs1,cytotoxicity at 70.5 h,-2.46%
O=C(C1CCC1)N1CCC(C(=O)N2CCC(c3ccc(F)cc3)C2)CC1 (configuration not stated),cytotoxicity at 70.5 h,3.33%
CCCc1ccc(CN2CCN(c3ncccn3)[C@@H]3CS(=O)(=O)C[C@@H]32)o1,cytotoxicity at 70.5 h,-8.8%
COCCc1noc(Cn2ccc3ncccc3c2=O)n1,cytotoxicity at 70.5 h,-7.6%
Cc1nonc1C1CCCN1CCC(=O)N1CCc2ccccc2C1 (configuration not stated),cytotoxicity at 70.5 h,24.4%
CCCn1ccnc1CN1CCC(Oc2cccc(F)c2)(C(=O)O)CC1,cytotoxicity at 70.5 h,-11%
CC(Cn1cnc2cn(C)nc2c1=O)Oc1cccnc1 (configuration not stated),cytotoxicity at 70.5 h,20.4%
COc1cccc(CN2CCCC3(CCN(C(CO)CO)C3)C2)c1 (configuration not stated),cytotoxicity at 70.5 h,-7.1%
CC(O)c1cn(CC2CCN(C(=O)c3cccc(N(C)C)c3)CC2)nn1 (configuration not stated),cytotoxicity at 70.5 h,-4.18%
CC(C)(C)N1CC(C(=O)NCc2nc(C3CCCCC3)no2)CC1=O (configuration not stated),cytotoxicity at 70.5 h,-4.38%
CS(=O)(=O)CCC(=O)N1C[C@@H]2CC[C@H](C1)N(Cc1ccccn1)C2=O,cytotoxicity at 70.5 h,14.6%
Cc1cccnc1NCCNc1cc(C(C)C)nc2ccnn12,cytotoxicity at 70.5 h,-11.6%
CN(C)c1ccc(CN2CCC(C(O)Cc3ccccc3)CC2)cn1 (configuration not stated),cytotoxicity at 70.5 h,-3.93%
c1cn(Cc2nnc(C3CCN(C4CCNCC4)CC3)n2C2CC2)cn1,cytotoxicity at 70.5 h,-1.79%
CN(C(=O)CSc1ccccn1)C1CCCN(CCc2ccccc2)C1 (configuration not stated),cytotoxicity at 70.5 h,-7.26%
CCCN1CC2(CCN(c3ccc(C(C)=O)cn3)CC2)CC1C(=O)O (configuration not stated),cytotoxicity at 70.5 h,-9.66%
CCC1C=CCN1C(=O)c1cc(COc2ccccc2OC)[nH]n1 (configuration not stated),cytotoxicity at 70.5 h,-11.7%
COc1ccc(CN2CCN(C3CCc4ccccc4C3)CC2)cc1O (configuration not stated),cytotoxicity at 70.5 h,3.2%
C[C@@H]1CN(C(=O)C2CCS(=O)(=O)CC2)C[C@@]1(O)C1CC1,cytotoxicity at 70.5 h,-19.6%
Cc1ccc2c(c1)cc(CN1CC[C@](C)(O)[C@H](C)C1)n2C,cytotoxicity at 70.5 h,-0.93%
CC(C)c1noc(-c2ccc(NCc3noc(C(C)C)n3)nc2)n1,cytotoxicity at 70.5 h,-5.44%
Cc1csc(S(=O)(=O)N2CCN(C)C3(CCC(=O)N(C)CC3)C2)c1 (configuration not stated),cytotoxicity at 70.5 h,-11.5%
Cc1cc(C)n(CC(C)NCc2nncn2C2CCCCC2)n1 (configuration not stated),cytotoxicity at 70.5 h,-7.66%
Cc1ncc(CC(=O)N2CCCC(COc3ccccc3F)C2)c(=O)[nH]1 (configuration not stated),cytotoxicity at 70.5 h,-9.07%
CN1CC2(CCN(C(=O)c3ccc4nonc4c3)CC2)CC1=O,cytotoxicity at 70.5 h,-11.3%
Cc1ncsc1CCN(C)C(=O)CN1CCCCCC1=O,cytotoxicity at 70.5 h,-2.38%
O=C1NCC2(CCCN(c3ncnc4c3CCC4)CC2)O1 (configuration not stated),cytotoxicity at 70.5 h,2.31%
CCc1ccc2nc(C)cc(C(=O)NC3CCC(=O)N(C)C3)c2c1 (configuration not stated),cytotoxicity at 70.5 h,-4.56%
Cc1cc(C(F)(F)F)nc(CCNC(C)Cn2nc(C)cc2C)n1 (configuration not stated),cytotoxicity at 70.5 h,-16.8%
Cc1ccc(S(N)(=O)=O)cc1C(=O)N1CCc2c(ncnc2N(C)C)C1,cytotoxicity at 70.5 h,0.0385%
CCOCCC(=O)NCC1CCCO1 (configuration not stated),cytotoxicity at 70.5 h,-6.72%
CCN(CC)CCn1ccnc1-c1cccc(C#N)c1,cytotoxicity at 70.5 h,-4.77%
CCn1c(CC2CCN(S(=O)(=O)c3cccs3)CC2)nn(C)c1=O,cytotoxicity at 70.5 h,10.6%
Cc1nnc(SCCNC(=O)Cn2cnc3ccccc3c2=O)s1,cytotoxicity at 70.5 h,-4.19%
CCC[C@H]1CN(C(=O)c2cc(-c3cccs3)n(C)n2)C[C@@H]1N,cytotoxicity at 70.5 h,-0.00623%
Cc1nsc(NC(=O)N2CCCC2C)n1 (configuration not stated),cytotoxicity at 70.5 h,2.78%
CCC(=O)N1CCCC(Cn2cc(-c3ccc(F)cc3)nn2)C1 (configuration not stated),cytotoxicity at 70.5 h,-6.83%
COc1ccccc1-c1ccc(NCc2cn3c(n2)SCC3)nn1,cytotoxicity at 70.5 h,-7.12%
O=C(c1ccc(=O)[nH]c1)N1CCc2c(nc(-c3cccnc3)[nH]c2=O)C1,cytotoxicity at 70.5 h,-3.02%
O=C1CCc2ccccc2N1CCCn1cnnn1,cytotoxicity at 70.5 h,-7.93%
COCCCN(Cc1cnc(N2CCCC2)nc1)C1CCN(C)CC1,cytotoxicity at 70.5 h,-20.3%
Cc1cnc(CNCc2cnc(-c3ccccc3C)s2)cn1,cytotoxicity at 70.5 h,-1.03%
CCN(Cc1noc(CC(C)C)n1)Cc1cc2ccc(F)cc2[nH]c1=O,cytotoxicity at 70.5 h,0.157%
COc1cccc(OCC(=O)N2CCC3(CC2)[C@H](O)C[C@@H]3OC)c1,cytotoxicity at 70.5 h,-5.93%
Cc1ccnn1CCC(=O)N1CCOC(CCc2ccccc2)C1 (configuration not stated),cytotoxicity at 70.5 h,-7.51%
COCCCN1CC2(CCN(Cc3cc(C(C)C)no3)CC2)CC1=O,cytotoxicity at 70.5 h,0.169%
N#Cc1cccc(N2CCCC3(CCC(=O)N(C4CCCC4)C3)C2)n1 (configuration not stated),cytotoxicity at 70.5 h,4.95%
CN(C)C(=O)c1noc2c1CN(C(=O)CCCN1CCCCC1)CC2,cytotoxicity at 70.5 h,10.8%
CCC/C=C/c1ccc(CN2CCN(C)CC2)cn1,cytotoxicity at 70.5 h,26%
CN(C)CCN1CC(C(=O)N2CCC(c3cc(=O)[nH]cn3)CC2)CC1=O (configuration not stated),cytotoxicity at 70.5 h,3.73%
O=C(Nc1ccc(S(=O)(=O)Nc2ccccc2)cc1)N1CCCC1,cytotoxicity at 70.5 h,-11.6%
CCCN1CCC(CC(=O)N(C)CC(=O)c2ccc(O)cc2)CC1,cytotoxicity at 70.5 h,-12.2%
CO[C@H]1CN(C(=O)c2ccc(-c3cc[nH]n3)cc2)CC[C@H]1N,cytotoxicity at 70.5 h,-8.35%
CCOc1cc(CNCc2cnc(C)cn2)c(Cl)cc1OC(C)C,cytotoxicity at 70.5 h,3.1%
Cc1ocnc1C(=O)N[C@H]1CN(CC2CCC2)C[C@@H]1C(C)C,cytotoxicity at 70.5 h,-1.41%
CC1(C)CN(c2cc(C3CC3)ncn2)C[C@]1(C)O,cytotoxicity at 70.5 h,21.7%
CN(C)C(C(=O)N1CCSCC1)c1ccccc1F (configuration not stated),cytotoxicity at 70.5 h,-5.06%
Cc1cc(C(=O)N2C[C@H](C(C)C)[C@@H](N(C)C)C2)cs1,cytotoxicity at 70.5 h,-2.9%
COc1ccc(OC2CCN(C(=O)c3cnc(C)s3)CC2)cc1,cytotoxicity at 70.5 h,-4.93%
COc1ccc(N2CCN(C(=O)CCCc3cn[nH]c3)CC2=O)cc1,cytotoxicity at 70.5 h,24.3%
COc1cc(-n2cc(CCO)cn2)ccc1NC(C)=O,cytotoxicity at 70.5 h,-9.17%
COC(=O)c1cc(C)nc(N2CCN(Cc3cc(C(C)C)no3)CC2)n1,cytotoxicity at 70.5 h,-12.8%
Cc1nc(NCCc2noc(C3CCCO3)n2)c2sccc2n1 (configuration not stated),cytotoxicity at 70.5 h,49.7%
Cc1nc(C)c(C(=O)N2C[C@@H](C(=O)O)[C@H](C3CC3)C2)s1,cytotoxicity at 70.5 h,-1.71%
CCC(=O)N1CCN(C(=O)Nc2cccc(C#N)c2)[C@H]2CS(=O)(=O)C[C@H]21,cytotoxicity at 70.5 h,-15.6%
CCCc1cc(C(=O)N2CCC3(CCCN(CCO)C3=O)C2)cs1 (configuration not stated),cytotoxicity at 70.5 h,-0.486%
CCNC(=O)[C@@H]1C[C@@H](N)CN1Cc1ccc(Sc2ccc(C)cc2)o1,cytotoxicity at 70.5 h,-4.77%
Cc1nc(CNC(=O)c2cc(COc3ccccc3F)[nH]n2)n[nH]1,cytotoxicity at 70.5 h,17.2%
CN(CCc1ccccc1)Cc1cc(C(=O)N2CCN(C)C(=O)C2)no1,cytotoxicity at 70.5 h,-14.7%
O=C(Cc1ccc(O)c(Cl)c1)N1CCCCC1CCn1cccn1 (configuration not stated),cytotoxicity at 70.5 h,-4.41%
CCc1nc(C)c([C@H]2CN(C)C[C@@H]2C(=O)Nc2ccc(OC)cc2)[nH]1,cytotoxicity at 70.5 h,-7.07%
CN(CCCc1cnn(C)c1)C(=O)C1CCOC1 (configuration not stated),cytotoxicity at 70.5 h,12.6%
CCC(OC)C(=O)N1CCc2nc(NC)nc(C(=O)N3CCCC3)c2C1 (configuration not stated),cytotoxicity at 70.5 h,-5.78%
CN(C)c1nc2c(c(N3CCC(O)CC3)n1)CN(CC1CCNC1)CC2 (configuration not stated),cytotoxicity at 70.5 h,-11.3%
CNC(=O)CN(C)c1nc(-c2ccncc2)nc2c1CCN(C(C)=O)C2,cytotoxicity at 70.5 h,-6.78%
COc1cc(C)sc1C(=O)N1CC(c2cccnc2)C1,cytotoxicity at 70.5 h,-3.92%
Cc1[nH]c(=O)[nH]c(=O)c1CN1CCCC(CCc2c(F)cccc2F)C1 (configuration not stated),cytotoxicity at 70.5 h,-12.5%
COCCC(=O)N1CCC2(CC1)CC(c1ccccc1)CN(C)C2 (configuration not stated),cytotoxicity at 70.5 h,-5.14%
